# Laboratory results reported in patent publication US6855512B2, “Methods for identifying inhibitors of cytochrome P450RAI” (Allergan, Inc., priority 2000, dated 2005).
# How the values were obtained:
# [1] = target: T1, P450RAI-1 (Homo sapiens, UniProt O43174); test: P450RAI-1 cell-based inhibitor assay (intact HeLa); details: read-out: P450RAI INHIBITION DATA INTACT HELA IC50
# T1 construct: expressed in transfected cells; host or cells: HeLa (stably transfected, hygromycin selection)
# T1 sequence (O43174 1-497): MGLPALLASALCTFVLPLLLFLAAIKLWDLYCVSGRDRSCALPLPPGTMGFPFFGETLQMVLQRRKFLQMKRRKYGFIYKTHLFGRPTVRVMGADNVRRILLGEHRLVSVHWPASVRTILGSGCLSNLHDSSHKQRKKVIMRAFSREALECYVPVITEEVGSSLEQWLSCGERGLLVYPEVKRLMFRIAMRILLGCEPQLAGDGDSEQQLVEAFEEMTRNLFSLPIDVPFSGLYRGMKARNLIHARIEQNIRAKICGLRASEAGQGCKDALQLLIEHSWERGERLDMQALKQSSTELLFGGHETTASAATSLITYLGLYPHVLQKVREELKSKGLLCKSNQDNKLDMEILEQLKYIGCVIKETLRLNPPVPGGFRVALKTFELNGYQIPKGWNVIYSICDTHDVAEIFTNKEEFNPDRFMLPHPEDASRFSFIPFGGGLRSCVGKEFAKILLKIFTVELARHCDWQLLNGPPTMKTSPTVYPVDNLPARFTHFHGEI
# Description: P450RAI-1 Cell-Based Inhibitor Assay:
# P450RAI-1 stably transfected HeLa cells are maintained in […] tissue culture dishes in Modified Eagle's Medium (MEM) containing 10% Fetal Bovine Serum (FBS) and 100 μg/ml hygromycin. Exponentially growing cells are harvested by incubating in trypsin. Cells are then washed with 1× Phosphate Buffered Saline (PBS) and plated in a 48-well plate at 5×10^5 cells in 0.2 ml MEM medium containing 10% FBS and 0.05 μCi [^3H]-RA in the presence or absence of increasing concentrations of the test compounds. The compounds are diluted in 100% DMSO and then added in triplicate wells at either 10, 1 or 0.1 μM final concentration. As a positive control for RA metabolism inhibition, cells are also incubated with ketoconazole at 100, 10 and 1 μM. Cell are incubated for 3 hours at 37° C. […] The water soluble radioactivity is quantified using β-scintillation counter. IC50 values represent the concentration of inhibitor required to inhibit all-trans-RA metabolism by 50 percent and are derived manually from log-transformed data.
# [2] = target: T2, RARβ (Homo sapiens, UniProt P10826); test: ligand binding assay, RARβ; details: Kd line of EC50/(EFFICACY)/Kd, K = thousand, read-out: RAR β Kd
# T2 sequence (P10826 1-455): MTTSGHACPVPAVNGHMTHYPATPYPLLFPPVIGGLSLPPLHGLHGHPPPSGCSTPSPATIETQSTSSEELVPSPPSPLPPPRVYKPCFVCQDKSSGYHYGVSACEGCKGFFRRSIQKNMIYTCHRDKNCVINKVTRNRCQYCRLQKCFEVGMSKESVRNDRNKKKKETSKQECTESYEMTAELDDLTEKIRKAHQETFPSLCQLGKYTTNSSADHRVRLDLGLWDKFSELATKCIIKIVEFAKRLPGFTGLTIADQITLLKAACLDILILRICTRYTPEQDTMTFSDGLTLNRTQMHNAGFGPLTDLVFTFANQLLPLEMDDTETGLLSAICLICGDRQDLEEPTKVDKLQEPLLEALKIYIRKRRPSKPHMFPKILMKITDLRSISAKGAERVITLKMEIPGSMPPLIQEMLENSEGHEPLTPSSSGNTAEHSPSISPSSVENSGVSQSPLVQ
# Excerpt: Assays described below measure the ability of a compound to bind to, and/or activate various retinoid receptor subtypes. When in these assays a compound binds to a given receptor subtype and activates the transcription of a reporter gene through that subtype, then the compound is considered an agonist of that receptor subtype. […] In the below described assays the ability of the compounds to bind to RARα, RARβ, RARγ, RXRα, RXRβ and RXRγ receptors, and the ability or inability of the compounds to activate transcription of a reporter gene through these receptor subtypes can be tested.
# The results obtained in this assay are expressed in EC50 numbers, as they are also in the chimeric receptor transactivation assay. The results of ligand binding assay are expressed in Kd numbers.
smiles,measurement,setting,value
CC1(C)CC(C)(C)c2cc(C#Cc3ccc(C(=O)O)cc3)ccc2O1 [Compound 201],IC50,[1],520 nM
same,Kd,[2],1100 nM
